Test results as given in patent US11912723B2, “KRAS modulators and uses thereof” (Quanta Therapeutics, Inc., priority 2022, dated 2024).

What was measured:
[1] = tested on: AGS (KRAS G12D) cells, phospho-ERK; assay: pERK In Cell Western (ICW) assay (Method B); assay type: cell-based; conditions: Homo sapiens, 3 hours
Protocol: pERK ICW is a high throughput screening assay to evaluate the cellular potency of mutant KRAS small molecule inhibitors. KRAS mutant cell line AGS (KRAS^G12D) were purchased from ATCC and maintained in DMEM and RPMI medium supplemented with 10% fetal bovine serum and Penicillin/Streptomycin.
Cells grown in exponential phase were trypsinized, resuspended in fresh media, and viable cells were counted using a cell counter with Trypan Blue (BioRad TC20). Cells were seeded into 384-well plate (Greiner 781091) at density of 5,000 cells/well for AGS and allowed to grow overnight in a 37° C. CO2 incubator. The next day, compounds were dispensed into wells with a ½ log, 10-point serial dilution and top concentration of 10 μM using Tecan D300e dispenser and incubated for 3 hours in a 37° C. CO2 incubator. Cells were then fixed with paraformaldehyde (Electron Microscopy Sciences, 15710, 4% final concentration) for 30 min, permeabilized with wash buffer (1×PBS+0.1% Triton X-100) for 30 min and blocked with Odyssey blocking buffer (Li—COR 927-70001) for 1 hour, all at room temperature (RT). Phospho-ERK antibody (CST 4370L) was diluted 1:500 in Odyssey blocking+0.2% Tween 20 and incubated with cells overnight at 4° C. The next day, plates were washed 5× with wash buffer, incubated with IRDye 800 CW, Goat anti-Rabbit secondary antibody (Li—COR 926-32211, 1:500) and DRAQ5 (CST 4084L, 1:5,000) diluted in Odyssey blocking+0.2% Tween 20 for 1 hour, washed 5×, and imaged on an Odyssey CLx imaging system.
For data analysis, signal intensities from 800 (phosphor-ERK) and 700 (DRAQ5) channels were extracted, and phospho-ERK signals were normalized to DRAQ5 signals for each well and percent of DMSO control values were computed. Data were then imported into Graphpad Prism to compute half-maximal inhibitory concentrations (IC50) using a 4-parameter variable slope model. Z-factor for each plate was computed from signals derived from wells treated with either DMSO or 5 μM of Trametinib. AGS pERK ICW (Method B) IC50 (uM) values of selected compounds are depicted in Table 2 with compounds having a value 0.001 uM to 0.01 uM as ++++; >0.01 uM to 0.1 uM as +++; >0.1 uM to 1 uM as ++; 1 uM to 10 uM as + and >10 uM as NA.

[2] = target: T1, GST-tagged KRAS G12D (2-169) (Homo sapiens, UniProt P01116, G12D); assay: Nucleotide exchange assay (NEA), HTRF of SOS-mediated GTP-DY-647P1 binding; assay type: biochemical; conditions: 5 nM GST-KRAS G12D, 20 nM SOScat, 150 nM GTP; compound 1 h at RT
T1 construct: GST-tagged KRAS^G12D (2-169, Reaction Biology, MSC-11-539); purchased Reaction Biology MSC-11-539 (KRAS G12D); MSC-11-502 (SOS1cat)
Summary of the method: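 After 1 h RT preincubation of compound with KRAS, SOS1cat (20 nM final) and fluorescent GTP analog (150 nM) were added to 5 nM KRAS; HTRF (anti-GST Tb donor) followed at RT for up to 90 min. % inhibition relative to DMSO and no-SOS1 blank, 4-parameter curve fit.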

[3] = target: T2, KRAS G12D/RAF1 (Homo sapiens, UniProt P01116, G12D); assay: Protein-protein interaction (PPI) HTRF assay KRAS G12D/RAF1; assay type: binding; conditions: KRAS G12D/RAF1, GppNHp-loaded KRAS; 30 minutes pre-incubation
T2 construct: KRAS (1-169) proteins were expressed in E. coli at 18° C; His6-MBP (N, cleaved yes); made in house; host or cells: E. coli
Summary of the method: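 IC50 values come from the 665/615 HTRF ratio, scaled between no-compound (0% inhibition) and untagged RAF1 (100%). GppNHp-exchanged, biotinylated RAS (1-169) solution at 16 nM met compound for 30 min at room temperature. Then 16 nM His-tagged RAF1 (52-131) donor solution was added and incubated 1 h.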

Molecule	IC50 [1] [µM]	IC50 [2] [µM]	IC50 [3] [µM]
CN1Cc2c(nc(OC[C@@]34CCCN3C[C@H](F)C4)nc2N2CCC[C@]3(C2)NC(=O)NC3=O)C[C@]12CCc1cccc(F)c12 [Compound 66, (5R)-9-[(7S)-7′-fluoro-2-[[(2R,8S)-2-fluoro-1,2,3,5,6,7-hexahydropyrrolizin-8-yl]methoxy]-6-methyl-spiro[5,8-dihydropyrido[4,3-d]pyrimidine-7,1′-indane]-4-yl]-1,3,9-triazaspiro[4.5]decane-2,4-dione]	> 10	0.01 to 0.1	–
CN1Cc2c(nc(OC[C@@]34CCCN3C[C@H](F)C4)nc2N2CCC[C@]3(C2)NC(=O)NC3=O)C[C@]12CCc1c(F)cccc12 [Compound 68, (5R)-9-[(7S)-4′-fluoro-2-[[(2R,8S)-2-fluoro-1,2,3,5,6,7-hexahydropyrrolizin-8-yl]methoxy]-6-methyl-spiro[5,8-dihydropyrido[4,3-d]pyrimidine-7,1′-indane]-4-yl]-1,3,9-triazaspiro[4.5]decane-2,4-dione]	> 10	0.01 to 0.1	–
Oc1ccc(Cl)c2c1C1(CC2)Cc2nc(OC[C@@]34CCCN3C[C@H](F)C4)nc(N3CCCCCC3)c2CO1 (mixture of isomers) [Compound 9, 4-(azepan-1-yl)-7′-chloro-2-[[rac-(2R,8S)-2-fluoro-1,2,3,5,6,7-hexahydropyrrolizin-8-yl]methoxy]spiro[5,8-dihydropyrano[4,3-d]pyrimidine-7,3′-indane]-4′-ol]	1 to 10	1 to 20	–
CN(C)C(=O)c1cc2n(n1)CCCN(c1nc(OC[C@@]34CCCN3C[C@H](F)C4)nc3c1CN(C)[C@]1(CCCc4ccc(O)cc41)C3)C2 [Compound 39B, 5-[(7R)-2-[[(2R,8S)-2-fluoro-1,2,3,5,6,7-hexahydropyrrolizin-8-yl]methoxy]-7′-hydroxy-6-methyl-spiro[5,8-dihydropyrido[4,3-d]pyrimidine-7,1′-tetralin]-4-yl]-N,N-dimethyl-4,6,7,8-tetrahydropyrazolo[1,5-a][1,4]diazepine-2-carboxamide]	> 10	1 to 20	–
CN1Cc2c(nc(OC[C@@]34CCCN3C[C@H](F)C4)nc2N2CCC[C@]3(C2)NC(=O)NC3=O)C[C@]12CCc1c(F)ccc(F)c12 [Compound 67, (5R)-9-[(7S)-4′,7′-difluoro-2-[[(2R,8S)-2-fluoro-1,2,3,5,6,7-hexahydropyrrolizin-8-yl]methoxy]-6-methyl-spiro[5,8-dihydropyrido[4,3-d]pyrimidine-7,1′-indane]-4-yl]-1,3,9-triazaspiro[4.5]decane-2,4-dione]	> 10	0.01 to 0.1	–
CN(C)C(=O)c1cc2n(n1)CCCN(c1nc(OC[C@@]34CCCN3C[C@H](F)C4)nc3c1COC1(CCc4ccc(OC(F)F)cc41)C3)C2 (mixture of isomers) [Compound 41, 5-[6′-(difluoromethoxy)-2-[[rac-(2R,8S)-2-fluoro-1,2,3,5,6,7-hexahydropyrrolizin-8-yl]methoxy]spiro[5,8-dihydropyrano[4,3-d]pyrimidine-7,1′-indane]-4-yl]-N,N-dimethyl-4,6,7,8-tetrahydropyrazolo[1,5-a][1,4]diazepine-2-carboxamide]	> 10	1 to 20	–
CN1Cc2c(nc(OCC34CCCN3CC(F)C4)nc2N2CC3CCC(C2)C3NC#N)CC12CCCc1ccccc12 [Compound 86, [(1R,5S)-3-[(7S)-2-[[(2R,8S)-2-fluoro-1,2,3,5,6,7-hexahydropyrrolizin-8-yl]methoxy]-6-methyl-spiro[5,8-dihydropyrido[4,3-d]pyrimidine-7,1′-tetralin]-4-yl]-3-azabicyclo[3.2.1]octan-8-yl]cyanamide]	–	< 0.01	> 100
CC(C)NC(=O)c1cc2n(n1)CCCN(c1nc(OC[C@@]34CCCN3C[C@H](F)C4)nc3c1CO[C@@]1(CCc4c(Cl)cccc41)C3)C2 [Compound 35, 5-[(7S)-4′-chloro-2-[[(2R,8S)-2-fluoro-1,2,3,5,6,7-hexahydropyrrolizin-8-yl]methoxy]spiro[5,8-dihydropyrano[4,3-d]pyrimidine-7,1′-indane]-4-yl]-N-isopropyl-4,6,7,8-tetrahydropyrazolo[1,5-a][1,4]diazepine-2-carboxamide]	–	0.01 to 0.1	> 100
CN1Cc2c(nc(OC[C@@]34CCCN3C[C@H](F)C4)nc2N2C[C@H]3CC[C@@H](C2)[C@@H]3N)C[C@]12CCCc1ccccc12 [Compound 85, (1R,5S)-3-[(7S)-2-[[(2R,8S)-2-fluoro-1,2,3,5,6,7-hexahydropyrrolizin-8-yl]methoxy]-6-methyl-spiro[5,8-dihydropyrido[4,3-d]pyrimidine-7,1′-tetralin]-4-yl]-3-azabicyclo[3.2.1]octan-8-amine]	–	1 to 20	> 100
[5-[(7S)-4′-chloro-2-[[(2R,8S)-2-fluoro-1,2,3,5,6,7-hexahydropyrrolizin-8-yl]methoxy]spiro[5,8-dihydropyrano[4,3-d]pyrimidine-7,1′-indane]-4-yl]-4,6,7,8-tetrahydropyrazolo[1,5-a][1,4]diazepin-2-yl]-pyrrolidin-1-yl-methanone [Compound 34]	–	< 0.01	> 100
CN1Cc2c(nc(OC[C@@]34CCCN3C[C@H](F)C4)nc2N2CCCn3nc(-c4cccc(O)n4)cc3C2)C[C@]12CCCc1ccccc12 [Compound 92, 6-[5-[(7S)-2-[[(2R,8S)-2-fluoro-1,2,3,5,6,7-hexahydropyrrolizin-8-yl]methoxy]-6-methyl-spiro[5,8-dihydropyrido[4,3-d]pyrimidine-7,1′-tetralin]-4-yl]-4,6,7,8-tetrahydropyrazolo[1,5-a][1,4]diazepin-2-yl]pyridin-2-ol]	–	0.1 to 1	> 100
N#CCC1CCCN(c2nc(OC[C@@]34CCCN3C[C@H](F)C4)nc3c2COC2(CCc4c(Cl)cccc42)C3)CC1 (stereo partly drawn) [Compound 19, 2-(1-(4-chloro-2′-(((2R,7aS)-2-fluorotetrahydro-1H-pyrrolizin-7a(5H)-yl)methoxy)-2,3,5′,8′-tetrahydrospiro[indene-1,7′-pyrano[4,3-d]pyrimidin]-4′-yl)azepan-4-yl)acetonitrile]	–	1 to 20	> 100
F[C@H]1CN2CCC[C@@]2(COc2nc3c(c(N4C[C@H]5CC[C@@H](C4)N5)n2)COC2(C3)c3ccccc3-c3n[nH]cc32)C1 (stereo partly drawn) [Compound 3, 4′-[(1R,5S)-3,8-diazabicyclo[3.2.1]octan-3-yl]-2′-[[(2R,8S)-2-fluoro-1,2,3,5,6,7-hexahydropyrrolizin-8-yl]methoxy]spiro[2H-indeno[1,2-c]pyrazole-4,7′-5,8-dihydropyrano[4,3-d]pyrimidine]]	–	1 to 20	> 100
O=C(c1cc2n(n1)CCCN(c1nc(OC[C@@]34CCCN3C[C@H](F)C4)nc3c1CO[C@@]1(CCc4c(Cl)cccc41)C3)C2)N1CCOCC1 [Compound 38, morpholino-[5-[(7S)-4′-chloro-2-[[(2R,8S)-2-fluoro-1,2,3,5,6,7-hexahydropyrrolizin-8-yl]methoxy]spiro[5,8-dihydropyrano[4,3-d]pyrimidine-7,1′-indane]-4-yl]-4,6,7,8-tetrahydropyrazolo[1,5-a][1,4]diazepin-2-yl]methanone; 2,2,2-trifluoroacetic acid]	–	< 0.01	10 to 100
